For one data set, the system named is mice. The settings on record: mouse, in vivo.
The target of another data set is human MOR (Homo sapiens (Human), UniProt P35372).

The text below walks through data of patent US10751335B2 (priority 2016, dated 2020).

SMILES strings stand for the structures.

Consider `CN1CC[C@]23c4c5ccc(O)c4O[C@H]2[C@@H](O)C=C[C@H]3[C@H]1C5` [morphine], for which the “constipation following acute administration” value in the data set on mice is “induced constipation”.

In the case of `COc1ccsc1CNCC[C@@]1(c2ccccn2)CCOC2(CCCC2)C1` [TRV-130], the “G/βarr2 bias factor” value at human MOR was 3.0.
